A value given as a limit tells only on which side of the number the result lay.

Here are results for one compound from US10479789B2, “Pyrido[1,2-A]pyrimidone analog, crystal form thereof, intermediate thereof and preparation method therefor” (Chia Tai Tianqing Pharmaceutical Group Co., Ltd., priority 2015, dated 2019).

One assay addresses PI3Kα (Homo sapiens, UniProt P42336). Put plainly: ADP-Glo Assay II, PI3Kα. The format is biochemical. The settings on record: read-out: IC50 for inhibition of PI3Kα activity. Here is the method:
(§1) 1) The compound was diluted using Echo from Labcyte company, 50 nL of the compound was transferred into an assay plate, and centrifuged at a speed of 1000 rpm for 10 sec.
(§2) 2) A kinase/lipid substrate mixed solution and a kinase reaction buffer/lipid substrate mixed solution were prepared; the kinase/lipid substrate mixed solution was added into columns 3-24 of the assay plate, 3 μL per well; the kinase reaction buffer/lipid substrate mixed solution was added into columns 1-2 of the assay plat, 3 μL per well; and the plate was centrifuged at a speed of 1000 rpm for 10 sec.
(§3) 3) An ATP solution was prepared, and added into the assay plate, 2 μL per well; the plate was centrifuged at a speed of 1000 rpm for 10 sec, shaken and mixed in 2nd gear mode on a plate shaker for 1 min, further centrifuged at a speed of 1000 rpm for 10 sec, and incubated for 120 min at 23° C. […]
(§4) 5) A kinase detection reagent was prepared, added into the assay plate, 10 μL per well; the plate was centrifuged at a speed of 1000 rpm for 10 sec, shaken and mixed in 2nd gear mode on a plate shaker for 1 min, further centrifuged at a speed of 1000 rpm for 10 sec, incubated for 30 min at 23° C.; and then read on the multi-marker detector Envision.
IC50 results were analyzed by XLfit5 (Formula 205) of IDBS company.
A general note: ADP-Glo turns the ADP formed in a reaction into a luminescent signal.

A further assay addresses T1, mTOR (Homo sapiens, UniProt P42345).
T1 construct: N-terminal GST tag (amino acid 1360-2549, molecular weight=163.9 kDa); GST (N); host or cells: insect cells
Put plainly: mTOR kinase activity, 32P-ATP P81 filter-binding method. Type of assay: biochemical. The settings on record: 3 μM 4EBP1 and 10 μM ATP; read-out: IC50 of mTOR enzyme activity. Here is the method:
The activity of the test compounds of the present invention on mTOR kinase was tested by the test method below.
Reaction Buffer: 20 mM Hepes (pH 7.5), 10 mM MgCl2, 2 mM MnCl2, 1 mM EGTA, 0.02% Brij35, 0.02 mg/mL BSA, 0.1 mM Na3VO4, 2 mM DTT, 2% DMSO.
Enzyme for reaction: humanized recombinant mTOR fragment with a N-terminal GST tag (amino acid 1360-2549, molecular weight=163.9 kDa), expressed in insect cells.
Reaction Substrate: humanized recombinant full-length 4EBP1 with a N-terminal His tag (molecular weight=13.6 kDa), expressed in bacteria;
Reaction conditions: 3 μM 4EBP1 and 10 μM ATP.
1. The reaction substrate and other reaction factors were added to the freshly prepared reaction buffer.
2. The kinase was added to the substrate reaction and gently mixed.
3. The compound dissolved in 100% DMSO was transferred into the kinase reaction solution using Acoustic technology (Echo 550; nanoliter rang) and then incubated at room temperature for 20 min.
4. An appropriate concentration of ^32P-ATP was add to the reaction system.
5. It was incubated at room temperature for 2 hours.
6. Kinase activity was detected by the P81 filter-binding method.

The subject of assay [1] is human colon cancer CO-04-0032. Put plainly: In vivo pharmacodynamics, subcutaneous xenograft tumor model of human colon cancer CO-04-0032. Details: species or system BALB/c nude mice. Here is the method: The studies were conducted to examine if the test drugs have in vivo efficacy in the human colon cancer CO-04-0032 animal model and the gastric cancer ST-02-0013 animal model. The descriptions about the animal feeding, feed ingredients, experimental observation, experimental indexes, experimental termination, as well as data analysis in the tests were as follows:
Animal Grouping: The animals were weighed and the tumor volume was measured prior to administration. The animals were randomly grouped according to tumor volume (randomized block design).
Experimental Indexes: The experimental indexes were used to examine whether tumor growth is inhibited, delayed or cured. Tumor diameter was measured twice a week with a vernier caliper. The tumor volume was calculated by the formula: V=0.5a×b^2, wherein a and b represent the long diameter and short diameter of a tumor, respectively. Tumor growth inhibition (TGI) of a compound was evaluated with T-C (day) and T/C (%). […]
Data Analysis: One-way ANOVA was used for comparison of three or more groups. […] All data was analyzed using SPSS 17.0. p<0.05 indicated a significant difference. […]
A general note: In xenograft studies the graft and the host belong to different species.

The next assay addresses PI3Kγ (Homo sapiens, UniProt P48736). Put plainly: ADP-Glo Assay II, PI3Kγ. The format is biochemical. As to conditions: read-out: IC50 for inhibition of PI3Kγ activity. On the procedure: as §1, §2, §3, §4

T1 sequence (P42345 1360-2549): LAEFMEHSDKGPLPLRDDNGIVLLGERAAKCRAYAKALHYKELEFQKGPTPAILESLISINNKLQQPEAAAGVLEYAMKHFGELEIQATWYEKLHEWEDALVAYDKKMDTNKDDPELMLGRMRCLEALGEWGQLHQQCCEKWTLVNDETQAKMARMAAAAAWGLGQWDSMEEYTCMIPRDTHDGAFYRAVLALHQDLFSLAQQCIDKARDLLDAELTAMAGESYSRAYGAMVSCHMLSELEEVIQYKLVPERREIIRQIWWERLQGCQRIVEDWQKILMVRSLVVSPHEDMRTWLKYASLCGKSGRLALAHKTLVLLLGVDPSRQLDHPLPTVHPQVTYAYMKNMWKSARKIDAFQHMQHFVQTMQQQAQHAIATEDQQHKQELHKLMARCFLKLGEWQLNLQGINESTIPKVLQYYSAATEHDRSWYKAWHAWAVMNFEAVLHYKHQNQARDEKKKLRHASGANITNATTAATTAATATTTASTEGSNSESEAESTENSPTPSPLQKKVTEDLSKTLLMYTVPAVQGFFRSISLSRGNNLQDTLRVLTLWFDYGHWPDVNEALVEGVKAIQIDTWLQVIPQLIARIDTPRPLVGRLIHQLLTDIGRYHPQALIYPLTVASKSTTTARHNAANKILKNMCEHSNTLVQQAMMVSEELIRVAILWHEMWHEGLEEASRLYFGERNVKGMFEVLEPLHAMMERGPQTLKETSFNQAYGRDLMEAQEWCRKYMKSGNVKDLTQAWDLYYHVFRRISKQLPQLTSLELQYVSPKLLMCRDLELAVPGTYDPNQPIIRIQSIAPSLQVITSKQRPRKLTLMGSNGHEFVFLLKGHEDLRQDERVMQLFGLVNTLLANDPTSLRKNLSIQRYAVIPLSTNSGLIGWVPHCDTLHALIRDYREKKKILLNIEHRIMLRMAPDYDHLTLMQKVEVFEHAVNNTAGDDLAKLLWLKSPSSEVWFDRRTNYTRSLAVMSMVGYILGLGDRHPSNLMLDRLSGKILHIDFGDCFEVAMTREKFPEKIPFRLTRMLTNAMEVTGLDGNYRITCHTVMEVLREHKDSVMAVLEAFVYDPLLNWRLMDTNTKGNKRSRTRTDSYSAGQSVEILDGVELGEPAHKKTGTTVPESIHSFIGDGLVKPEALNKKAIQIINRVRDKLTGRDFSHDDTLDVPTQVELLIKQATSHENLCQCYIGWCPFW
PI3Kγ, sequence (P48736 whole entry): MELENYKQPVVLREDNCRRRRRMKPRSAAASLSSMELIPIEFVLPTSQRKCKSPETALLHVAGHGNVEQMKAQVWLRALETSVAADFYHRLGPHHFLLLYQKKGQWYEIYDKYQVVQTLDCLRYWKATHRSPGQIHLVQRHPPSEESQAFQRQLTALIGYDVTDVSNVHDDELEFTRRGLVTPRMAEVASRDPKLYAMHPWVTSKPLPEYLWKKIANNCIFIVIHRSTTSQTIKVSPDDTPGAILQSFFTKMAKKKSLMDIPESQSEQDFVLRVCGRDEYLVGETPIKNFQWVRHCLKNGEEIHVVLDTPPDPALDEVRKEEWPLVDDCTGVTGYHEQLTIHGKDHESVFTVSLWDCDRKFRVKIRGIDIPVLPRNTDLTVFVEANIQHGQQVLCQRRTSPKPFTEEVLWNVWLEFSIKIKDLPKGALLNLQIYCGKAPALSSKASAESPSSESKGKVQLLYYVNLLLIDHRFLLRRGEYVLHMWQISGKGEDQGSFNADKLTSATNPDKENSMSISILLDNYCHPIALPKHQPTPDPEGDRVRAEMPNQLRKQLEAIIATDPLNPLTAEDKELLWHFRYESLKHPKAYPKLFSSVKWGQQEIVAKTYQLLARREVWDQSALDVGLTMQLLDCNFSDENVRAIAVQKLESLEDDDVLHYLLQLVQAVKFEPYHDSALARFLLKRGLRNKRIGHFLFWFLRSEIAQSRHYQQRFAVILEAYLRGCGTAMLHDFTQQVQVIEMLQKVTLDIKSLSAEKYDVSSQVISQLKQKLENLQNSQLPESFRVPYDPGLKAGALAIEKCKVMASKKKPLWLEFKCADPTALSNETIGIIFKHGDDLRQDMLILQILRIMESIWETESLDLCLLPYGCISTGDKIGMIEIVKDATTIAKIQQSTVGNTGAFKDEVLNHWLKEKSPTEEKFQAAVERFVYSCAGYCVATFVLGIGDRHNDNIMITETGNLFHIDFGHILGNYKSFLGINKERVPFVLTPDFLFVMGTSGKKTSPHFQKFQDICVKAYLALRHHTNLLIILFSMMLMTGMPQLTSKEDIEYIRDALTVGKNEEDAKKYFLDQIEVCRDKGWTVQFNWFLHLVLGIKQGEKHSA
PI3Kα, sequence (P42336 whole entry): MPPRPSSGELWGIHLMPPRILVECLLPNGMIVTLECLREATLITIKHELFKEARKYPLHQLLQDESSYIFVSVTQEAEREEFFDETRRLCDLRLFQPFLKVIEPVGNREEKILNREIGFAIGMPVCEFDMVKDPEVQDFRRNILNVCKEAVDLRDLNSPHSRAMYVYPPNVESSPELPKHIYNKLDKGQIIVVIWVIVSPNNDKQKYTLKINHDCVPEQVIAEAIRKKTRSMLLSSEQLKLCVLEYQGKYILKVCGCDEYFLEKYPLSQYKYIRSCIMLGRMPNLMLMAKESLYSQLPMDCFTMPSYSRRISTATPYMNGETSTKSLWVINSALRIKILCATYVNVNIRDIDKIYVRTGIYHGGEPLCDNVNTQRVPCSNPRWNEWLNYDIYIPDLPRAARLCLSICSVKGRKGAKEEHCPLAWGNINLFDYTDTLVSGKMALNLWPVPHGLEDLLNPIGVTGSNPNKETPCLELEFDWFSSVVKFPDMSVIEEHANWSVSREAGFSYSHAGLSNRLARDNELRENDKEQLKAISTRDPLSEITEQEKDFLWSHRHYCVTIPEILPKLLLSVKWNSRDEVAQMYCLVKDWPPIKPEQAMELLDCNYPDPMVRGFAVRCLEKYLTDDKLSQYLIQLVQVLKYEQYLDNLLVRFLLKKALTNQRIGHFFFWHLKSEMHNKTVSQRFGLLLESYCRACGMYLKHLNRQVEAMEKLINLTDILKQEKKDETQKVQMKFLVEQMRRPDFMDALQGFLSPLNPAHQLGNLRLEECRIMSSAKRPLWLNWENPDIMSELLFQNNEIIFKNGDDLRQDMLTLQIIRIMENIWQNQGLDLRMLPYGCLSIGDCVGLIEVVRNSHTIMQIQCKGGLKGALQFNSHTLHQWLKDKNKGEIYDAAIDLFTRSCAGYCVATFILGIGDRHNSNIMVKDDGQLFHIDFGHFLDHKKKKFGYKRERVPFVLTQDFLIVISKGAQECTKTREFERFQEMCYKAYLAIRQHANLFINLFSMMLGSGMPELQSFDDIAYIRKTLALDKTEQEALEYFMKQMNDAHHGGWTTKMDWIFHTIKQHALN
PI3Kα, sequence (P27986 whole entry partner): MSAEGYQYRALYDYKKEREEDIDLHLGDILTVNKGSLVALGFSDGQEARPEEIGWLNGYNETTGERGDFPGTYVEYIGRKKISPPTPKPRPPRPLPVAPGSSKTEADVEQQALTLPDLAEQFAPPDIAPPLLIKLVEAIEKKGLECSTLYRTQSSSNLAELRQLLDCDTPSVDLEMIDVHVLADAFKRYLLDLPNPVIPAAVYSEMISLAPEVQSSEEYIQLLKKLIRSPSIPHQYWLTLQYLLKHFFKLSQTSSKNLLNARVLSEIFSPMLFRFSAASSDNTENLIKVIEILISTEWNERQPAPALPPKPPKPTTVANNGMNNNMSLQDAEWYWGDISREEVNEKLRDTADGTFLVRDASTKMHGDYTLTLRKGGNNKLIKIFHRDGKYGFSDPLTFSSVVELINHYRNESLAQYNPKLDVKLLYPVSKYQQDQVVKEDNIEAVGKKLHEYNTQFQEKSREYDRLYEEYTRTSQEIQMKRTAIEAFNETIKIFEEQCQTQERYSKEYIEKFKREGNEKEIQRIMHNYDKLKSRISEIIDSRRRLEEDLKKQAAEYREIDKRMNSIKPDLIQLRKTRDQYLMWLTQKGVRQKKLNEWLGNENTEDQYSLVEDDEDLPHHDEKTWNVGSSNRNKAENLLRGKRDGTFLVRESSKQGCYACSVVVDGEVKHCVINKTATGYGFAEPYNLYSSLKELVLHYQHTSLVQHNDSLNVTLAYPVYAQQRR

In general, IC50 refers to the midpoint of a concentration-inhibition curve. Turning to `COc1ncc(-c2ccc3ncc(OCCN(C)C)c(=O)n3c2)cc1NS(=O)(=O)c1ccc(F)cc1Cl` [Compound 1], the IC50 on PI3Kα was 0.6 ± 0.2 nM; on mTOR it was above 200 nM; at PI3Kγ, 7 ± 0.9 nM. Further, in assay [1] (colon cancer CO-04-0032), the “anti-tumor activity compared to the positive control drug BKM120” value was “more excellent anti-tumor activity”. Moreover, the “increase in tumor volume” value in assay [1] (from day 15 to day 30 of the administration, CO-04-0032) is listed as “almost no increase in tumor volume”.
